Data on eleven compounds can be found in patent US20130315843A1, “COMPOSITION FOR REDUCTION OF TRPA1 AND TRPV1 SENSATIONS” (priority 2012, published 2013).

“Also recorded” adds a separate entry of the source. Like-named read-outs stand apart in the source and are kept apart here.

In assay [1] the target is T1, human TRPA1 (Homo sapiens, UniProt O75762). As to the kind of experiment: FLIPR Ca2+ assay, reduction of hydrogen peroxide activation of TRPA1. The format is cell-based. Details: expressed in transfected cells. As to conditions: for inhibition at 100 µM: read-out: % Reduction of Hydrogen Peroxide TRPA1 Activation. Here is the method: After centrifugation, a pellet of cells was formed in the bottom of the tube separating them from the supernatant solution.
T1 sequence (O75762 whole entry): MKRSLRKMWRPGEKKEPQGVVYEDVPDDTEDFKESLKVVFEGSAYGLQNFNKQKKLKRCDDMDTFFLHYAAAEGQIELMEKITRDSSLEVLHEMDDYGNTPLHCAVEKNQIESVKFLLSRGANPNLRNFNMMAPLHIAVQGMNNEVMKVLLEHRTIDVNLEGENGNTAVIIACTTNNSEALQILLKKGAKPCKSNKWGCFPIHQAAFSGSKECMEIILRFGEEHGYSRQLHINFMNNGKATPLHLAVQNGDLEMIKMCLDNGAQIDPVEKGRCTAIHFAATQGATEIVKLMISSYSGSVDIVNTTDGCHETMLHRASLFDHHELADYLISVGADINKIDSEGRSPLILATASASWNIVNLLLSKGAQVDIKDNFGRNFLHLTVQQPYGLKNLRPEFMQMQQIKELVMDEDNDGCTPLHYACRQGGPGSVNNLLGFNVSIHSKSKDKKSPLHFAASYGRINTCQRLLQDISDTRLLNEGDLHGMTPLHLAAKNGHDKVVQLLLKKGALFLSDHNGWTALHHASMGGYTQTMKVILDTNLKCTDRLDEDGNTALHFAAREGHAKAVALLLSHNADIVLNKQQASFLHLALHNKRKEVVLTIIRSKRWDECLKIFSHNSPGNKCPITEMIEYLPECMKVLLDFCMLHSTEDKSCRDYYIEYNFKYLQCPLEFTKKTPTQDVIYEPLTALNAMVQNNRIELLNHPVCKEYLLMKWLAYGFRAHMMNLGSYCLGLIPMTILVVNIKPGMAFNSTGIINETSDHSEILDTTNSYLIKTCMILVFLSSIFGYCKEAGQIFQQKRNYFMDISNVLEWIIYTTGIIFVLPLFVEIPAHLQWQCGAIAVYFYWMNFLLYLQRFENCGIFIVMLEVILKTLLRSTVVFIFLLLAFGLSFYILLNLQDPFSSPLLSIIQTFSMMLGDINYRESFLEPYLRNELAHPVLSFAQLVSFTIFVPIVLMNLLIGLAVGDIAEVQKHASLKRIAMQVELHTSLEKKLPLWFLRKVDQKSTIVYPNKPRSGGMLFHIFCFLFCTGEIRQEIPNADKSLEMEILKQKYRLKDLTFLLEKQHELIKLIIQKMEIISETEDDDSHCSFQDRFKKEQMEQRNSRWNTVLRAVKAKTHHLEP
The pelleted cells were re-suspended in 10 ml assay buffer and 90 μl aliquots (˜50,000 cells) per well delivered to a 96-well assay plate containing 10 μl of test compounds ([…]) or buffer control and incubated at room temperature for 30 minutes.

For assay [2], the target named is T1, human TRPA1. In words: FLIPR Ca2+ assay, block of AITC activation of TRPA1. The format is cell-based. Also on record: expressed in transfected cells.
Experimental: Intracellular Ca^++ levels were measured using cell based assays as described for EXAMPLES 1, 2, and 3.
Assay [3] has as its target T1, human TRPA1. As to the kind of experiment: FLIPR Ca2+ assay, reduction of L-Menthol activation of TRPA1. The note with it: 100 μM antagonist vs 1 mM L-Menthol.
Another assay concerns the target human TRPV1 (Homo sapiens, UniProt Q8NER1). In words: FLIPR Ca2+ assay, reduction of L-Menthol activation of TRPV1. As to conditions: for % Reduction of L-Menthol TRPV1 Activation / Average Ca2+ Counts: antagonist 100 μM against 1 mM L-Menthol; for inhibition at 100 µM: read-out: % Reduction of L-Menthol TRPV1 Activation.
The mark [4] stands for this setting: 100 μM antagonist vs 500 μM hydrogen peroxide.
The mark [5] stands for this setting: compound 100 μM against 200 μM hydrogen peroxide, Sets 1-4.

human TRPV1, sequence (Q8NER1 whole entry): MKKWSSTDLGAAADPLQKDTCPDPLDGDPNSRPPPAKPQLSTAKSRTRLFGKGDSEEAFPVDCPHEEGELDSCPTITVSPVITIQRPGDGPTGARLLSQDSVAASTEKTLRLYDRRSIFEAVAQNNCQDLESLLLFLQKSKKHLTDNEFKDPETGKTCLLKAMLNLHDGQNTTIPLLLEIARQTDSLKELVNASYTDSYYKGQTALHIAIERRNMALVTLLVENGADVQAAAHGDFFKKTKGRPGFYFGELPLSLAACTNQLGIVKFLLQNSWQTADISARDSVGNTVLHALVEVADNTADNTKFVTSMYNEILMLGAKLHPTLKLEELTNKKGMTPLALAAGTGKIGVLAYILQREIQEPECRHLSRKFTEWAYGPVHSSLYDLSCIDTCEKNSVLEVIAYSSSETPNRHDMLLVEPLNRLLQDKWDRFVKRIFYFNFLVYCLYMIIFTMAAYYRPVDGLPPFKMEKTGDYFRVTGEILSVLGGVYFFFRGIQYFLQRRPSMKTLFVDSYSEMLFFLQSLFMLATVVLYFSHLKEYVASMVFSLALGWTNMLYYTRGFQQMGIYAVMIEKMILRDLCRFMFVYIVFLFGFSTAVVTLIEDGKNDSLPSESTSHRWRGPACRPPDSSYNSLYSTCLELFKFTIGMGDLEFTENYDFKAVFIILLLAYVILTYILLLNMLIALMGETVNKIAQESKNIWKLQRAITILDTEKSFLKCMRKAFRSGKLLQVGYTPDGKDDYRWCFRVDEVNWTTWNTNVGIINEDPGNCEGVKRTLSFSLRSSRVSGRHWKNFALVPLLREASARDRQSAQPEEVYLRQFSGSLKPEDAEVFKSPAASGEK
Experimental for human TRPV1: To determine whether TRPV1 was activated, the intracellular calcium ion (Ca^+2) levels from cells transfected with the TRPV1 receptor gene was measured. HEK-239 cells stably transfected with human TRPV1 were grown in 15 ml growth medium [high glucose DMEM (Dulbecco's Modification of Eagle's Medium) supplemented with 10% FBS (fetal bovine serum), 100 g/ml Penicillin/streptomycin, 100 g/ml G418] in a 75 Cm2 flask for 3 days at 33° C. in a mammalian cell culture incubator set at 5% CO2. Cells were detached with addition of 10 ml of PBS (phosphate buffered saline) by hand shaking gently. Cells were transferred to a 50 ml tube and centrifuged at 850 rpm for 3 minutes to remove PBS. After centrifugation, a pellet of cells formed in the bottom of the tube separating them from the supernatant solution. The supernatant was discarded and the cell pellet suspended in 1 ml of fresh growth medium to which 5 μl (12.5 g) of Fluo-4 AM (Molecular Probes, Inc., Eugene, Oreg.) calcium indicator was added and incubated for 30 minutes with gentle shaking.
The pelleted cells were re-suspended in 10 ml assay buffer and 90 μl aliquots (˜50,000 cells) per well delivered to a 96-well assay plate containing 10 μl of test compounds (1 mM in assay buffer, final concentration 100 μM) or buffer control and incubated at room temperature for 30 minutes. After 30 minutes, the plate was placed into a fluorometric imaging plate reader (FLIPR384 from Molecular Devices) and basal fluorescence recorded (excitation wave length 488 nm and emission wave length 510 nm). Then 20 μl of the compound being tested as a TRPV1 receptor activator was added and fluorescence recorded. […] It may be no difference (no effect), or negative (means antagonist or desensitizer) or positive (enhancer, also known as positive allosteric modulator). […] To determine if a compound was an antagonist or a desensitizer, the direct effect of a test compound was determined. For determining the direct effect of test compounds on TRPV1, 100 μl aliquots (˜50,000 cells) of cells prepared as described above were delivered to a 96-well assay plate and basal fluorescence recorded as noted above. Then 20 μl of the compound being tested as a TRPV1 receptor activator was added and fluorescence recorded. If any increase in fluorescence over background was noted, then the compound was considered an agonist. The agonist activity was expressed relative to that observed with a benchmark agonist such as 350 nM Capsaicin for TRPV1.
100 μM of antagonist was tested against 1 mM of L-Menthol to determine the level of reduced TRPV1 receptor activation by L-Menthol. Each antagonist compound was run with 1 mM of L-Menthol as a control and the antagonist activity of each compound was determined by comparing the Ca^2+ levels of the control with the antagonist compound being tested.

`[Cu+].[I-]` [copper(i) iodide]: the “Block of hydrogen peroxide activation of TRPA1” value at human TRPA1 [1] (setting [4]) was “Block menthol, H2O2, and AITC on TRPA1”. Besides, the “% Reduction of Hydrogen Peroxide TRPA1 Activation” value on human TRPA1 [1] (setting [5]) was found to be 90.4%. Moreover, the “Block of AITC activation of TRPA1” value at human TRPA1 [2] (100 μM antagonist) was “Block menthol, H2O2, and AITC on TRPA1”. Also, at human TRPA1 [3], the “Block of L-Menthol activation of TRPA1” value is “Block menthol, H2O2, and AITC on TRPA1”. In addition, on human TRPV1, the “% Reduction of L-Menthol TRPV1 Activation” value turned out to be 89.8% and the “Average Ca2+ Counts” value was determined as 651.5 Counts.

Regarding `SCCc1cnccn1` [2-Pyrazinyl ethanethiol], at human TRPA1 [1] (setting [4]), the “Block of hydrogen peroxide activation of TRPA1” value was “Block menthol, H2O2, and AITC on TRPA1”. Besides, on human TRPA1 [2] (100 μM antagonist), the “Block of AITC activation of TRPA1” value is “Block menthol, H2O2, and AITC on TRPA1”. On human TRPA1 [3], the “Block of L-Menthol activation of TRPA1” value is “Block menthol, H2O2, and AITC on TRPA1”.

`Cc1cc(S)c(C)o1` [2,5-dimethylfuran-3-thiol]: the “Block of AITC activation of TRPA1” value on human TRPA1 [2] (100 μM antagonist) was “BLOCK BOTH MENTHOL AND AITC ON TRPA1”. The “Block of L-Menthol activation of TRPA1” value on human TRPA1 [3] is recorded as “BLOCK BOTH MENTHOL AND AITC ON TRPA1”. Moreover, at human TRPV1, the “Average Ca2+ Counts” value was determined as 1443.0 Counts and the inhibition at 100 µM was 25.2%.

Turning to `O=C(O)CCC(=O)O` [succinic acid], at human TRPA1 [2] (100 μM antagonist), the “Block of AITC activation of TRPA1” value is listed as “BLOCK BOTH MENTHOL AND AITC ON TRPA1”. Besides, the “Block of L-Menthol activation of TRPA1” value at human TRPA1 [3] is “BLOCK BOTH MENTHOL AND AITC ON TRPA1”. For the same compound, at human TRPV1, the “Average Ca2+ Counts” value was 1045.0 Counts and the inhibition at 100 µM turned out to be 43.6%.

For `CCc1ccccc1S` [2-ethylbenzenethiol], the “Block of hydrogen peroxide activation of TRPA1” value on human TRPA1 [1] (setting [4]) is “Block menthol, H2O2, and AITC on TRPA1”. Further, on human TRPA1 [1] (setting [5]), the “Average Ca++ Counts” value was 4808.5 Counts and the inhibition at 100 µM was determined as 54.6%. The “Block of AITC activation of TRPA1” value at human TRPA1 [2] (100 μM antagonist) is “Block menthol, H2O2, and AITC on TRPA1”. Besides, the “Block of L-Menthol activation of TRPA1” value on human TRPA1 [3] is “Block menthol, H2O2, and AITC on TRPA1”.

In the case of `CSCCCN=C=S` [3-(methylthio)propyl isothiocyanate], on human TRPA1 [2] (100 μM antagonist), the “Block of AITC activation of TRPA1” value was “BLOCK BOTH MENTHOL AND AITC ON TRPA1”. The “Block of L-Menthol activation of TRPA1” value on human TRPA1 [3] was “BLOCK BOTH MENTHOL AND AITC ON TRPA1”. Besides, at human TRPV1, the “Average Ca2+ Counts” value is 1426.7 Counts and the inhibition at 100 µM worked out at 25.9%.

Consider `Cc1occc1S` [2-methyl-3-furanthiol], for which, at human TRPA1 [2] (100 μM antagonist), the “Block of AITC activation of TRPA1” value is listed as “BLOCK BOTH MENTHOL AND AITC ON TRPA1”. Further, the “Block of L-Menthol activation of TRPA1” value on human TRPA1 [3] is on record as “BLOCK BOTH MENTHOL AND AITC ON TRPA1; also recorded: BLOCK ONLY MENTHOL/TRPA1”. Also, on human TRPV1, the “Average Ca2+ Counts” value was 2835.5 Counts and the inhibition at 100 µM worked out at 38.9%.

Turning to zinc gluconate, at human TRPA1 [2] (100 μM antagonist), the “Block of AITC activation of TRPA1” value is “BLOCK BOTH MENTHOL AND AITC ON TRPA1”. In addition, the “Block of L-Menthol activation of TRPA1” value at human TRPA1 [3] was “BLOCK BOTH MENTHOL AND AITC ON TRPA1”. Further, at human TRPV1, the “% Reduction of L-Menthol TRPV1 Activation” value is recorded as 38.1% and the “Average Ca2+ Counts” value amounted to 3963.5 Counts.

For the compound `Cc1ccc(C=O)c(O)c1` [2-hydroxy-4-methylbenzaldehyde], the “Block of hydrogen peroxide activation of TRPA1” value on human TRPA1 [1] (setting [4]) was “Block both H2O2 and AITC on TRPA1”. Besides, at human TRPA1 [1] (setting [5]), the “Average Ca++ Counts” value turned out to be 3429.0 Counts and the inhibition at 100 µM stood at 51.3%. Further, the “Block of AITC activation of TRPA1” value on human TRPA1 [2] (100 μM antagonist) is “Block both H2O2 and AITC on TRPA1”.

For `CC(C)C=C(C=O)c1ccccc1` (single isomer, unassigned) [4-Methyl-2-phenyl-2 Pentenal (mixture of cis and trans isomers)], the “Block of hydrogen peroxide activation of TRPA1” value on human TRPA1 [1] was “Block both H2O2 and AITC on TRPA1”. Also, the “Block of AITC activation of TRPA1” value on human TRPA1 [2] (400 μM antagonist) is “Block both H2O2 and AITC on TRPA1”.

As for `O=C(C=Cc1ccccc1)OCc1ccccc1` [benzyl cinnamate], the “Block of hydrogen peroxide activation of TRPA1” value at human TRPA1 [1] (setting [4]) is “Block both H2O2 and AITC on TRPA1”. Moreover, at human TRPA1 [1] (setting [5]), the “Average Ca++ Counts” value worked out at 4828.5 Counts and the inhibition at 100 µM is 54.4%. Further, the “Block of AITC activation of TRPA1” value at human TRPA1 [2] (100 μM antagonist) was “Block both H2O2 and AITC on TRPA1”.
